# In patent US7608278B2, “Formulations of hydrophobic proteins in an immunogenic composition having improved tolerability” (priority 2003, dated 2009):
# Values joined by “and” are separate entries in the source; they are usually repeats but may differ in a detail not shown here. Equal entries are not always repeated. Where two headings read alike, the source gives them in different places.
# Assays:
# rat footpad = assay: Rat footpad (paw-lick) pain test; type: in vivo, Male Sprague Dawley rats; conditions: for Mean time pain response, 0-10 min. / Mean time pain response, 10-20 min.: 8 rats per group; for Pain in rat footpad model, survey of detergents (result in words): Example 9, injected at concentrations above the CMC for the detergent; for Pain response in the rat footpad model (result in words): Examples 1-7 and 10, footpad injection 0.1 or 0.2 ml
# Excerpt: An animal model, the rat paw-lick (footpad) model, which has previously been employed for detection of pain associated with the injection of antibiotics, was utilized (Celozzi et al. J. Pharmacol. Methods, 1980, 4:[…]; Comerski et al., Fundamental and Appl. Toxicology, 1986, 6:335-338). This model monitors the amount of time the rats spend lifting, licking, and biting the injected paw.
# The “rat footpad pain” or “rat paw-lick” test or model as used herein refers to a test or model used to determine the pain induced by a specific formulation upon injection. The test consists of uniformly injecting into the footpad of rats of the same species and approximately the same weights compositions to be assessed as pain causing agents along with compositions known to cause pain at the injection site, as well as compositions known not to cause pain at the injection site. A statistically significant number of animals are to be used for each test and control formulation. After the injection, the animal is placed in a cage with mirrors and then observed by a technician (preferably blinded as to the identity of the immunogenic composition) for 20 to 30 minutes for flinching, lifting, licking, or biting of the injected paw. The amount of time spent on these pain response behaviors are recorded using a stopwatch and summed for 10 minute periods.
# The phrase “less painful” as used herein refers to an alteration in the composition that leads to a reduction in the length of time or intensity, or both, of a pain response compared to that of the non-altered composition as measured by the rat footpad pain test. The phrase “50% reduction in pain” as used herein refers to a 50% reduction in the amount of time spent on pain responses as measured by the rat footpad pain test when comparing altered and unaltered immunogenic compositions administered in equal injection volumes by the same means and observed for the same length of time. The number of animals in each group is a statistically significant number. Observation of the different injection groups is preferably done by the same technician and who is blinded as to the identification of the compositions.
# Rat footpad pain testing. The immunogenic composition samples were brought to room temperature prior to being administered to the animals. The animals were injected by a technician who was not involved in the monitoring of pain responses. Male Sprague Dawley rats (Crl:CD®(SD)IGS BR, 50-100 g at arrival) from Charles River Laboratories Inc. (Kingston, N.Y.) were used for all studies. The rats were acclimated at the research facility for approximately one week prior to initiation of a study, at which point they weighed 100-150 g. The paw to be injected was examined prior to injection to verify absence of any injury. The animal was then restrained in the technician's arm such that the hind legs extended forward. The right rear leg was grasped just above the hock joint and pressure was exerted to hold the paw straight out, with plantar (sole) facing upwards. Using a new 23 gauge needle for each animal, the operator inserted the bevel side up in the center of paw, parallel to the surface of the paw, until the needle was in the center of the pad. The material was then injected and the needle left in place for 3-5 seconds prior to withdrawal, to minimize leakage from the injection site. […]
# The animal was then placed in a cage with 3 mirrors (adjoining sides and floor) and observed by a different technician (blinded as to the identity of the immunogenic composition) for 30 minutes for flinching, lifting, licking, or biting of the injected paw. The length of time spent on these pain response behaviors was recorded using a stopwatch and summed for 10 minute periods. […]
# Statistical Analysis. Results were analyzed using an ANOVA method adjusting for multiple comparisons that compared each treatment group with control group who received buffer alone (either PBS or TBS). […]
# [1] = known critical micelle concentrations, cited from earlier work
# [2] = Example 9 (Table 15), detergent concentration 0.05%, 200 μl
# [3] = Example 9 (Table 16), concentration 0.025%, 200 μl
# [4] = Example 9 (Table 17), concentration 0.8%, 200 μl
# [5] = Example 9 (Table 16), concentration 0.9%, 200 μl
# [6] = Example 9 (Table 16), concentration 0.02%, 200 μl
# [7] = Example 9 (Table 16), concentration 1%, 200 μl
# [8] = Example 9 (Table 17), concentration 0.5%, 200 μl
# [9] = Example 1 (Table 1), 0.1 ml footpad injection, 6 rats per group
# [10] = Example 4 (Table 7), 0.2 ml injection (formalin 0.1 ml), 10 rats per group
# [11] = Example 6 (Table 11), 0.2 ml injection (formalin 0.1 ml), 10 rats per group
# [12] = Example 7 (Table 13), 0.2 ml injection (formalin 0.1 ml), 10 rats per group
# [13] = Example 9 (Table 15), concentration 5%, 100 μl
# [14] = Example 9 (Table 16), concentration 5%, 100 μl
# [15] = Example 9 (Table 17), concentration 5%, 100 μl
# [16] = Example 9 (Table 15), detergent concentration 0.05%, 200 μl, listed as Zw3-14
# [17] = Example 9 (Table 17), concentration 7 mM, 200 μl
compound,measurement,setting,value
"alpha-[4-(1,1,3,3-tetramethylbutyl)phenyl]-omega-hydroxypoly(oxy-1,2-ethanediyl) [TRITON ® X-100]","Mean time pain response, 0-10 min.",rat footpad; [2],8.5 s
same,"Mean time pain response, 10-20 min.",rat footpad; [2],11.2 sec.
same,"Pain in rat footpad model, survey of detergents (result in words)",rat footpad,do not cause significant pain
same,CMC,[1],0.2 to 0.9 mM
same,CMC (%),[1],0.013-0.056%
"CCCCCCCC/C=C\CCCCCCCC(=O)OCCOCC(OCCO)C1OCC(OCCO)C1OCCO (stereo not shown) [TWEEN 80, Polyoxyethylene (20) sorbitan monooleate]","Mean time pain response, 0-10 min.",rat footpad; [3],3 s
same,"Mean time pain response, 10-20 min.",rat footpad; [3],6 sec.
same,"Pain in rat footpad model, survey of detergents (result in words)",rat footpad,do not cause significant pain
same,CMC,[1],0.012 mM
same,CMC (%),[1],0.0016%
"CCCCCCCCCC[N+](C)(C)CCCS(=O)(=O)[O-] [Zwittergent ® 3-10, n-Decyl-N,N-dimethyl-3-ammonio-1-propanesulfonate]","Mean time pain response, 0-10 min.",rat footpad; [4],300.6 s
same,"Mean time pain response, 10-20 min.",rat footpad; [4],260.5 sec.
same,"Pain in rat footpad model, survey of detergents (result in words)",rat footpad,caused significant pain
same,CMC,[1],25 to 40 mM
same,CMC (%),[1],0.43-1.23%
"CCCCCCCCCCCCO[C@@H]1O[C@H](CO)[C@@H](O[C@H]2O[C@H](CO)[C@@H](O)[C@H](O)[C@H]2O)[C@H](O)[C@H]1O [Dodecyl maltoside, n-Dodecyl-beta-D-maltoside]","Mean time pain response, 0-10 min.",rat footpad; [4],298.0 s
same,"Mean time pain response, 10-20 min.",rat footpad; [4],141.0 sec.
same,"Pain in rat footpad model, survey of detergents (result in words)",rat footpad,induced pain
"C[C@H](CCC(=O)NCCC[N+](C)(C)CCCS(=O)(=O)[O-])[C@H]1CC[C@H]2[C@@H]3[C@H](O)C[C@@H]4C[C@H](O)CC[C@]4(C)[C@H]3C[C@H](O)[C@]12C [CHAPS ®, 3-[(3-Cholamidopropyl)dimethylammonio]-1-propanesulfonate]","Mean time pain response, 0-10 min.",rat footpad; [5],351 s
same,"Mean time pain response, 10-20 min.",rat footpad; [5],114 sec.
same,"Pain in rat footpad model, survey of detergents (result in words)",rat footpad,caused significant pain
same,Pain response in the rat footpad model (result in words),rat footpad,cause considerable pain
same,CMC,[1],6 to 10 mM
same,CMC (%),[1],0.18-0.62%
Polyoxyethylene (35) Lauryl Ether [BRIJ],"Mean time pain response, 0-10 min.",rat footpad; [6],1 s
same,"Mean time pain response, 10-20 min.",rat footpad; [6],0 sec.
same,"Pain in rat footpad model, survey of detergents (result in words)",rat footpad,do not cause significant pain
same,CMC,[1],0.09 mM
same,CMC (%),[1],0.011%
"CCCCCCCCO[C@@H]1O[C@H](CO)[C@@H](O)[C@H](O)[C@H]1O [Octyl glucoside, n-Octyl-b-D-glucopyranoside]","Mean time pain response, 0-10 min.",rat footpad; [7],48 s
same,"Mean time pain response, 10-20 min.",rat footpad; [7],108 sec.
same,"Pain in rat footpad model, survey of detergents (result in words)",rat footpad,induced pain
same,Pain response in the rat footpad model (result in words),rat footpad,cause considerable pain
Sodium deoxycholate,"Mean time pain response, 0-10 min.",rat footpad; [8],307.0 s
same,"Mean time pain response, 10-20 min.",rat footpad; [8],121.9 sec.
C=O [5% Formalin],"Time pain response, Mean, 0-10 min.",rat footpad; [9],274 s
same,"Time pain response, Mean, 10-20 min.",rat footpad; [9],312 sec
same,"Time pain response, Mean, 20-30 min.",rat footpad; [9],450 s
same,"Time pain response, Median, 10-20 min.",rat footpad; [9],292 sec
same,"Time pain response, Median, 20-30 min.",rat footpad; [9],448 s
same,"Time pain response, Median, 0-10 min.","rat footpad; Example 1 (Table 1), 0.1 ml footpad injection, 6 rats per group, PBS not pyrogen-free",311 s
same,"0-10 min. time pain response, Mean",rat footpad; [10],178 s
same,"0-10 min. time pain response, Median",rat footpad; [10],162 s
same,"10-20 min. time pain response, Mean",rat footpad; [10],174 sec
same,"10-20 min. time pain response, Median",rat footpad; [10],173 sec
same,"0-10 min. time pain response, Mean",rat footpad; [11],225 s
same,"0-10 min. time pain response, Median",rat footpad; [11],219 s
same,"10-20 min. time pain response, Mean",rat footpad; [11],167 sec
same,"10-20 min. time pain response, Median",rat footpad; [11],181 sec
same,"0-10 min time pain response, Mean",rat footpad; [12],252 s
same,"0-10 min time pain response, Median",rat footpad; [12],233 s
same,"10-20 min. time pain response, Mean",rat footpad; [12],435 sec
same,"10-20 min. time pain response, Median",rat footpad; [12],448 sec
same,"Mean time pain response, 0-10 min.",rat footpad; [13],161.3 s
same,"Mean time pain response, 10-20 min.",rat footpad; [13],313.5 sec.
same,"Mean time pain response, 0-10 min.",rat footpad; [14],114 s
same,"Mean time pain response, 10-20 min.",rat footpad; [14],218 sec.
same,"Mean time pain response, 0-10 min.",rat footpad; [15],272.5 s
same,"Mean time pain response, 10-20 min.",rat footpad; [15],280.4 sec.
same,Pain response in the rat footpad model (result in words),rat footpad,induced the highest pain response among the compositions tested
"CCCCCCCCCCCCCC[N+](C)(C)CCCS(=O)(=O)[O-] [Zwittergent ® 3-14, n-Tetradecyl-N,N-dimethyl-3-ammonio-1-propanesulfonate]","Mean time pain response, 0-10 min.",rat footpad; [16],44.7 s and 37.8 s
same,"Mean time pain response, 10-20 min.",rat footpad; [16],33.6 sec. and 30.1 sec.
same,"Pain in rat footpad model, survey of detergents (result in words)",rat footpad,caused significant pain
same,Pain response in the rat footpad model (result in words),rat footpad,responsible for the pain on injection
same,CMC,[1],0.1 to 0.4 mM
same,CMC (%),[1],0.004-0.015%
same,CMC (%),[1]; listed as Zw 3-14,0.004%-0.015%
"C[C@H](CCC(=O)N(CCCNC(=O)[C@H](O)[C@@H](O)[C@H](O)[C@H](O)CO)CCCNC(=O)[C@H](O)[C@@H](O)[C@H](O)[C@H](O)CO)[C@H]1CC[C@H]2[C@@H]3[C@H](O)C[C@@H]4C[C@H](O)CC[C@]4(C)[C@H]3C[C@H](O)[C@]12C [BigCHAP ®, N,N-bis(3-D-glucon-amidopropyl)cholamide]",CMC,[1],3 to 4 mM
same,CMC (%),[1],0.3%
"CCCCCCCCCC(=O)N(C)C[C@H](O)[C@@H](O)[C@H](O)[C@H](O)CO [Mega10, Decanoyl-N-methylglucamide]","Mean time pain response, 0-10 min.",rat footpad; [17],28.8 s
same,"Mean time pain response, 10-20 min.",rat footpad; [17],31.0 sec.
"CCCCCCCC[N+](C)(C)CCCS(=O)(=O)[O-] [Zwittergent ® 3-8, n-Octyl-N,N-dimethyl-3-ammonio-1-propanesulfonate]",CMC,[1],330 mM
same,CMC (%),[1],4.6-10.9%
"CCCCCCCCCCCC[N+](C)(C)CCCS(=O)(=O)[O-] [Zwittergent ® 3-12, n-Dodecyl-N,N-dimethyl-3-ammonio-1-propanesulfonate]","Mean time pain response, 0-10 min.",rat footpad; [2],295.3 s
same,"Mean time pain response, 10-20 min.",rat footpad; [2],139.8 sec.
same,"Pain in rat footpad model, survey of detergents (result in words)",rat footpad,caused significant pain
same,Pain response in the rat footpad model (result in words),rat footpad,responsible for the pain on injection
same,CMC,[1],2 to 4 mM
same,CMC (%),[1],0.047-0.13%
